Here are results for 12 compounds from ChEMBL document CHEMBL1146175, “Natural inhibitors targeting osteoclast-mediated bone resorption” (Bioorg Med Chem Lett, 2006).

Test [1] has as its target Matrix metalloproteinase-9 (Homo sapiens, UniProt P14780). Description: Inhibition of human MMP9 by quenched fluorescense assay.
The target in the next test is T1, Cathepsin K (Homo sapiens, UniProt P43235).
T1 sequence (P43235 whole entry): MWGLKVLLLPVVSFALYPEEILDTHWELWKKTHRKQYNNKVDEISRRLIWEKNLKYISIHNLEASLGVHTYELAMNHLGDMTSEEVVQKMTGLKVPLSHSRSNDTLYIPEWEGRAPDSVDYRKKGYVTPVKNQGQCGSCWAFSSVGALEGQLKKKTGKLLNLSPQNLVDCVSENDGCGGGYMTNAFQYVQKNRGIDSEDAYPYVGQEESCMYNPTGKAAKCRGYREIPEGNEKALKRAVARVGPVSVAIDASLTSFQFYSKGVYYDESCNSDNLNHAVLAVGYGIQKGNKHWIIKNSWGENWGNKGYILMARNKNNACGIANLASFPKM
The test is described as follows: Inhibition of human Cathepsin K.

The next test addresses Integrin alpha-V/beta-3 (Homo sapiens, UniProt P05106+P06756). Description: Inhibition of human alpha-v-beta-3 integrin receptor by ELISA. Format: protein-complex assay. On the technique in general: An ELISA detects its analyte on a solid surface through an enzyme-linked reagent.

Sequence of Matrix metalloproteinase-9 (P14780 whole entry): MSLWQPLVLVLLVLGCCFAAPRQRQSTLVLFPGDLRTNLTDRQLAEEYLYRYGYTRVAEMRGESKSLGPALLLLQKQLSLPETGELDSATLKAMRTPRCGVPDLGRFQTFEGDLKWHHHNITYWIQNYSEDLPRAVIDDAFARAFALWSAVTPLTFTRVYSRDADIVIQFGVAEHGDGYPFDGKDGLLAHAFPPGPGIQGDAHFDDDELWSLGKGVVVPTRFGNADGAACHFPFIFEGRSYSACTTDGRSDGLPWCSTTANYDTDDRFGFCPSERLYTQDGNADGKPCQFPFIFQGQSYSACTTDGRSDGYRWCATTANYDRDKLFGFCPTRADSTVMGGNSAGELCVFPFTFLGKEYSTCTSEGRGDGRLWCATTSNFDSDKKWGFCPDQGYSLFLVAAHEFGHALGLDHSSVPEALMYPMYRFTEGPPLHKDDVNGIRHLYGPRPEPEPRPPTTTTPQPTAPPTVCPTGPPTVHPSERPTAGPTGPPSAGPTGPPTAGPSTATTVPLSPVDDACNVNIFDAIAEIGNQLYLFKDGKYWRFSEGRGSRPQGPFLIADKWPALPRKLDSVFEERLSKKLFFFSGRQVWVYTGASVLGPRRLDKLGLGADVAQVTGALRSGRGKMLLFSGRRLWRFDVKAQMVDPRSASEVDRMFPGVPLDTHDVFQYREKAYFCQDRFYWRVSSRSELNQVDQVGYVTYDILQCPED
Sequence of Integrin alpha-V/beta-3 (P05106 27-788 limits assumed): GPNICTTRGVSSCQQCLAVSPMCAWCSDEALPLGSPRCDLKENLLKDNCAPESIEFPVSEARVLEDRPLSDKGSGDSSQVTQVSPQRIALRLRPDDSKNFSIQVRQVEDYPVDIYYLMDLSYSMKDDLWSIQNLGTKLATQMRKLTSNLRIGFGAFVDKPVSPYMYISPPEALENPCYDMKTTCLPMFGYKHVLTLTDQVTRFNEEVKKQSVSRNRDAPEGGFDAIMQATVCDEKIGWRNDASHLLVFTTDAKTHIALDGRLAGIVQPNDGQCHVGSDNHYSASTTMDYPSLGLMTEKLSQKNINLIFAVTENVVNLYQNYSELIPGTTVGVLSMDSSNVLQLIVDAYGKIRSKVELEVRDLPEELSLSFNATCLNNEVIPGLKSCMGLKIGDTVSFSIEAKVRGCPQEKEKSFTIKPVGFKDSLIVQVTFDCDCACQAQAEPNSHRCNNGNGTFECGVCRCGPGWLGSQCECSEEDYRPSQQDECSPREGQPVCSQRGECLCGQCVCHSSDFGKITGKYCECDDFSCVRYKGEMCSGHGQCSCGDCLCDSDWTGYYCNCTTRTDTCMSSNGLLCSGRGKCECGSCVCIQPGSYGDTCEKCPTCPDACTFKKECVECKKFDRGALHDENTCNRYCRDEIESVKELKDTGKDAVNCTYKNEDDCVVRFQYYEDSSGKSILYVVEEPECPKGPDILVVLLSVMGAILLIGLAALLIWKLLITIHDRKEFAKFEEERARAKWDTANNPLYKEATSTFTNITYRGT
Sequence of Integrin alpha-V/beta-3 (P06756 31-889 limits assumed): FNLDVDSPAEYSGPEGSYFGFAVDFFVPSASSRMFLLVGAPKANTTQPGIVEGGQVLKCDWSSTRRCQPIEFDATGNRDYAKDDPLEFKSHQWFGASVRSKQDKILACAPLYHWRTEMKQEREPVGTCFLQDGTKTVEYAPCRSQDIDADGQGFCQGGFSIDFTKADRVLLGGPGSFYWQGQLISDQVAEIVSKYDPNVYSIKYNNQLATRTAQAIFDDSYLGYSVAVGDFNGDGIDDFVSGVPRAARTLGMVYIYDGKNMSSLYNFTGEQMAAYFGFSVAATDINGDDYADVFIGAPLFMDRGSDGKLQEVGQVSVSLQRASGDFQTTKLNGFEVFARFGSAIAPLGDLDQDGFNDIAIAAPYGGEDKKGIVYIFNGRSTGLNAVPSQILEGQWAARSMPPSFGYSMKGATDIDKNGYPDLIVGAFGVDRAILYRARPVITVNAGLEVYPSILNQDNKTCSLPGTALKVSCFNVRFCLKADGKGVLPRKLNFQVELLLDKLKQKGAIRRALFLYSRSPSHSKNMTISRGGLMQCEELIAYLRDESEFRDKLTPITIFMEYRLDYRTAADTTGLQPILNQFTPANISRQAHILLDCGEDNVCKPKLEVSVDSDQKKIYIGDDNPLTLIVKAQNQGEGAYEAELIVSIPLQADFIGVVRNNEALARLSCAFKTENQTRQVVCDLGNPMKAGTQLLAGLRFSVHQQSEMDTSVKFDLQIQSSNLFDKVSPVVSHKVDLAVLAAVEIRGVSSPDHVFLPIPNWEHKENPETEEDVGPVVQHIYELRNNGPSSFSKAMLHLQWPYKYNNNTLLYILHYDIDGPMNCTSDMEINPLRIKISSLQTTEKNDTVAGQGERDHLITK
Sequence of Integrin alpha-V/beta-3 (P06756 891-1048 limits assumed): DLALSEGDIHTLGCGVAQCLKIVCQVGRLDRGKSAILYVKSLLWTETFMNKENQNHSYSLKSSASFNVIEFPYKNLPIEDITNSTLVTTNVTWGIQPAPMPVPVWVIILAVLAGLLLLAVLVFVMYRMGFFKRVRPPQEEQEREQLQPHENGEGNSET

`C[C@@H]1C[C@@H](O)[C@@]2(O)[C@@]13C[C@@H](OC(=O)[C@@H]3O)[C@](C)(O)[C@@]21COC1=O` [ANIASATIN] showed an IC50 in test [1] of 17700 nM.

`O=c1cc(-c2ccc(O)c(-c3c(O)cc(O)c4c(=O)cc(-c5ccc(O)cc5)oc34)c2)oc2cc(O)cc(O)c12` [AMENTOFLAVONE]: inhibition at Cathepsin K was half-maximal at 1880 nM (IC50).

The compound `O=c1cc(-c2ccc(Oc3c(O)cc4oc(-c5ccc(O)cc5)cc(=O)c4c3O)cc2)oc2cc(O)cc(O)c12` [HINOKIFLAVONE] had an IC50 against Cathepsin K of 1540 nM.

Take `COc1ccc(-c2cc(=O)c3c(O)cc(OC)c(-c4cc(-c5cc(=O)c6c(O)cc(O)cc6o5)ccc4O)c3o2)cc1` [7'',4'''-dimethylamentoflavone]: at Cathepsin K, the IC50 was 1570 nM.

In turn, `O=C(O)/C=C/c1ccccc1O[C@@H]1O[C@H](CO)[C@@H](O)[C@H](O)[C@H]1O` [MELILOTOSIDE] showed an IC50 against Integrin alpha-V/beta-3 of 18300 nM.

On to `COc1ccc(-c2cc(=O)c3c(O)cc(O)cc3o2)cc1-c1c(O)cc(O)c2c(=O)cc(-c3ccc(O)cc3)oc12` [BILOBETIN], for which half-maximal inhibition against Cathepsin K (IC50) required 1520 nM.

In test [1], `O=C(NO)[C@@H](Cc1ccccc1)NS(=O)(=O)c1ccc(-c2ccccc2)cc1` gave an IC50 of 7.06 nM.

In test [1], `O=c1c2ccccc2nc2n1CCc1c-2[nH]c2ccccc12` [RUTAECARPINE] gave an IC50 of 27700 nM.

Consider `COc1cc2c([nH]c3c4c(c(C)cc32)OC(C)(C)C=C4)c(-c2c(O)c(OC)cc3c2[nH]c2c4c(c(C)cc23)OC(C)(C)C=C4)c1O`, for which, at Cathepsin K, the IC50 is 1910 nM.

The compound `CC(=O)N[C@@H](CC(C)C)C(=O)N[C@@H](CC(C)C)C(=O)N[C@H](C=O)CCCNC(=N)N` [LEUPEPTIN] had an IC50 against Cathepsin K of 42.2 nM.

Consider `COc1ccc(-c2cc(=O)c3c(O)cc(O)c(-c4cc(-c5cc(=O)c6c(O)cc(O)cc6o5)ccc4O)c3o2)cc1` [PODOCARPUSFLAVONE A], for which inhibition against Cathepsin K was half-maximal at 2520 nM (IC50).

Take `O=C1C[C@@H](c2ccc(O)c(-c3c(O)cc(O)c4c(=O)cc(-c5ccc(O)cc5)oc34)c2)Oc2cc(O)cc(O)c21`: on Cathepsin K, the IC50 is 1420 nM.

Usually IC50 stands for the midpoint of a concentration-inhibition curve.
